ChEMBL document CHEMBL1137099, “Synthesis of novel rhinacanthins and related anticancer naphthoquinone esters” (J Med Chem, 2004)

Tests used:
Assay type in all cases: functional, cell-based; call rule not given here
HeLa = test: Concentration required to inhibit growth of human cervical carcinoma (HeLa) cell line
KB [1] = test: Concentration required to inhibit growth of human epidermoid carcinoma (KB) cell line
Vero = test: Concentration required to inhibit growth of african green monkey kidney cell line; settings: Chlorocebus sabaeus
HepG2 = test: Concentration required to inhibit growth of human hepatocellular carcinoma (HepG2) cell line
KB [2] = test: Concentration required to inhibit growth of human epidermoid carcinoma (KB) cell line; IA= Inactive

SMILES	IC50 (HeLa) [µM]	IC50 (KB [1]) [µM]	IC50 (Vero) [µM]	IC50 (HepG2) [µM]	IC50 (KB [2])
COc1cc(C(=O)OCC(C)CC2=C(O)C(=O)c3ccccc3C2=O)c(O)c2ccccc12 (centres undefined)	2.83	2.16	< 0.22	3.14	–
COc1cc(C(=O)OCC(C)(C)CC2=C(O)C(=O)c3ccccc3C2=O)c(OC)c2ccccc12	1.09	0.35	32.7	0.97	–
CC(C)(COC(=O)c1ccccc1O)CC1=C(O)C(=O)c2ccccc2C1=O	4.34	4.65	> 136	5.44	–
COc1ccc(OC)c(C(=O)OCC(C)CC2=C(O)C(=O)c3ccccc3C2=O)c1 (centres undefined)	41.9	37.6	4.05	53.1	–
COC1C=C(C(=O)O)C(OC)c2ccccc21 (centres undefined)	–	–	–	–	Not Active
COc1cc(C(=O)OCC(C)CC2=C(O)C(=O)c3ccccc3C2=O)c(OC)c2ccccc12 (centres undefined)	3.8	3.52	5.91	3.65	–
CC(C)(COC(=O)c1ccc2ccccc2c1O)CC1=CC(=O)c2ccccc2C1=O	45.9	38.2	90.8	48.3	–
CC(COC(=O)c1ccc2ccccc2c1)CC1=CC(=O)c2ccccc2C1=O (centres undefined)	38.2	29	43.4	27.3	–
COC1=C(CC(C)(C)COC(=O)c2cc(OC)ccc2OC)C(=O)c2ccccc2C1=O	38.8	14.9	13.4	40.7	–
O=C(O)C1=CCc2ccccc2C1O (centres undefined)	–	–	–	–	Not Active
CC(C)(COC(=O)c1ccc2ccccc2c1)CC1=C(O)C(=O)c2ccccc2C1=O	1.17	1.59	1.5	1.3	–
O=C1C(=O)c2ccccc2C(O)=C1CCCOC(=O)c1ccc2ccccc2c1	15.8	14.4	24	15.5	–
COc1cc(C(=O)OCCCC2=CC(=O)c3ccccc3C2=O)c(O)c2ccccc12	45.4	93.8	48.5	64.4	–
CC(COC(=O)c1ccc2ccccc2c1)CC1=C(O)C(=O)c2ccccc2C1=O (centres undefined)	4.25	3.58	1.8	3.7	–
CC(COC(=O)c1ccccc1)CC1=C(O)C(=O)c2ccccc2C1=O (centres undefined)	4.76	4.57	2.31	8.43	–
COc1ccc(O)c(C(=O)OCC(C)(C)CC2=C(O)C(=O)c3ccccc3C2=O)c1	3.33	1.18	11.5	1.61	–
O=C1C(=O)c2ccccc2C(O)=C1CCCOC(=O)c1ccc2ccccc2c1O	15.1	12.3	124	16.2	–
CC(C)(COC(=O)c1cc(O)c2ccccc2c1O)CC1=C(O)C(=O)c2ccccc2C1=O	12.4	4.22	15.4	12.9	–
COc1c(C(=O)OCC(C)CC2=CC(=O)c3ccccc3C2=O)ccc2ccccc12 (centres undefined)	39.5	26.4	20.2	39.5	–
CC(C)(COC(=O)c1ccccc1)CC1=C(O)C(=O)c2ccccc2C1=O	3.02	1.53	48.6	4.85	–
COc1c(C(=O)OCC(C)CC2=C(O)C(=O)c3ccccc3C2=O)ccc2ccccc12 (centres undefined)	0.38	0.66	0.97	1.04	–
COc1cc(C(=O)OCCCC2=C(O)C(=O)c3ccccc3C2=O)c(OC)c2ccccc12	32.3	12.8	75.4	35.9	–
CC(COC(=O)c1ccc2ccccc2c1O)CC1=CC(=O)c2ccccc2C1=O (centres undefined)	46.2	38.6	37.9	42.1	–
CC(COC(=O)c1ccc2ccccc2c1O)CC1=C(O)C(=O)c2ccccc2C1=O (centres undefined)	3.97	1.06	0.7	1	–
COc1c(C(=O)OCCCC2=CC(=O)c3ccccc3C2=O)ccc2ccccc12	47.5	50	40	54.2	–

SMILES	IC50 (HeLa) [µM]	IC50 (KB [1]) [µM]	IC50 (Vero) [µM]	IC50 (HepG2) [µM]	IC50 (KB [2])
COc1cc(C(=O)OCC(C)(C)CC2=C(O)C(=O)c3ccccc3C2=O)c(O)c2ccccc12	0.3	< 0.22	12.7	0.38	–
CC(C)(COC(=O)c1cc(O)ccc1O)CC1=C(O)C(=O)c2ccccc2C1=O	45.5	64.4	77	47.6	–
COc1ccc(O)c(C(=O)OCC(C)CC2=C(O)C(=O)c3ccccc3C2=O)c1 (centres undefined)	4.55	4.04	14	4.96	–
CC(C)(COC(=O)c1ccc2ccccc2c1)CC1=CC(=O)c2ccccc2C1=O	41.2	32	33.3	45.2	–
CC(COC(=O)c1ccccc1O)CC1=C(O)C(=O)c2ccccc2C1=O (centres undefined)	10.3	4.65	75.9	11.6	–
COC1=C(CC(C)(C)COC(=O)c2ccc3ccccc3c2)C(=O)c2ccccc2C1=O	44.9	91.5	47.9	127	–
COc1cc(C(=O)OCCCC2=C(O)C(=O)c3ccccc3C2=O)c(O)c2ccccc12	4.24	4.09	40.9	4.28	–
CC(C)(CO)CC1=C(O)C(=O)c2ccccc2C1=O	–	11.2	–	–	–
O=C(OCCCC1=CC(=O)c2ccccc2C1=O)c1ccc2ccccc2c1	12.9	13.7	14.9	10.2	–
COC1=C(CC(C)(C)COC(=O)c2ccc3ccccc3c2OC)C(=O)c2ccccc2C1=O	9.47	10.1	5.96	11.5	–
COc1ccccc1C(=O)OCC(C)CC1=C(O)C(=O)c2ccccc2C1=O (centres undefined)	4.12	1.64	29.8	4.04	–
CC(C)(COC(=O)c1ccc2ccccc2c1O)CC1=C(O)C(=O)c2ccccc2C1=O	< 0.23	< 0.23	1	0.32	–
COc1c(C(=O)OCCCC2=C(O)C(=O)c3ccccc3C2=O)ccc2ccccc12	42.9	33.7	120	45.7	–
CC(CO)CC1=C(O)C(=O)c2ccccc2C1=O (centres undefined)	–	59.4	–	–	–
COc1c(C(=O)OCC(C)(C)CC2=CC(=O)c3ccccc3C2=O)ccc2ccccc12	36.9	12.5	30.4	14.4	–
COC1C(C(=O)O)=CCc2ccccc21 (centres undefined)	–	–	–	–	Not Active
O=C(O)C1=CCc2ccccc2C1	–	–	–	–	Not Active
O=C1C(O)=C(CCCO)C(=O)c2ccccc21	–	–	–	–	Not Active
COC1=C(CC(C)(C)COC(=O)c2ccccc2)C(=O)c2ccccc2C1=O	40.6	43	34.8	46.7	–
O=C1C=C(CCCOC(=O)c2ccc3ccccc3c2O)C(=O)c2ccccc21	> 259	> 259	> 259	> 259	–
COc1c(C(=O)OCC(C)(C)CC2=C(O)C(=O)c3ccccc3C2=O)ccc2ccccc12	0.23	< 0.22	17.6	0.24	–
COc1ccc(OC)c(C(=O)OCC(C)(C)CC2=C(O)C(=O)c3ccccc3C2=O)c1	3.42	3.38	9.11	3.54	–
COc1ccccc1C(=O)OCC(C)(C)CC1=C(O)C(=O)c2ccccc2C1=O	4.04	1.86	8.98	4.72	–
COc1cc(C(=O)OCCCC2=CC(=O)c3ccccc3C2=O)c(OC)c2ccccc12	> 233	> 233	> 233	> 233	–
COc1cccc2c1C(=O)c1c(O)c3c(c(O)c1C2=O)C[C@@](O)(C(=O)CO)C[C@@H]3O[C@H]1C[C@H](N)[C@H](O)[C@H](C)O1 [DOXORUBICIN]	0.33	0.03	23.9	0.4	–
